From patent US20130267594A1, “PROLYL HYDROXYLASE INHIBITORS AS RADIATION MITIGATORS AND RADIATION PROTECTORS” (priority 2010, published 2013)

What was measured:
KDM4A = molecular target: T1, KDM4A (Homo sapiens, UniProt O75164); experiment: H3K9me3 immunofluorescent staining in HEK293T cells transiently expressing KDM4A (FIG. 10B); format: cell-based; conditions: DMOG 1 mM 24 hrs
T1 construct: expressed in transfected cells; host or cells: HEK293T cells
T1 sequence (O75164 1-1064): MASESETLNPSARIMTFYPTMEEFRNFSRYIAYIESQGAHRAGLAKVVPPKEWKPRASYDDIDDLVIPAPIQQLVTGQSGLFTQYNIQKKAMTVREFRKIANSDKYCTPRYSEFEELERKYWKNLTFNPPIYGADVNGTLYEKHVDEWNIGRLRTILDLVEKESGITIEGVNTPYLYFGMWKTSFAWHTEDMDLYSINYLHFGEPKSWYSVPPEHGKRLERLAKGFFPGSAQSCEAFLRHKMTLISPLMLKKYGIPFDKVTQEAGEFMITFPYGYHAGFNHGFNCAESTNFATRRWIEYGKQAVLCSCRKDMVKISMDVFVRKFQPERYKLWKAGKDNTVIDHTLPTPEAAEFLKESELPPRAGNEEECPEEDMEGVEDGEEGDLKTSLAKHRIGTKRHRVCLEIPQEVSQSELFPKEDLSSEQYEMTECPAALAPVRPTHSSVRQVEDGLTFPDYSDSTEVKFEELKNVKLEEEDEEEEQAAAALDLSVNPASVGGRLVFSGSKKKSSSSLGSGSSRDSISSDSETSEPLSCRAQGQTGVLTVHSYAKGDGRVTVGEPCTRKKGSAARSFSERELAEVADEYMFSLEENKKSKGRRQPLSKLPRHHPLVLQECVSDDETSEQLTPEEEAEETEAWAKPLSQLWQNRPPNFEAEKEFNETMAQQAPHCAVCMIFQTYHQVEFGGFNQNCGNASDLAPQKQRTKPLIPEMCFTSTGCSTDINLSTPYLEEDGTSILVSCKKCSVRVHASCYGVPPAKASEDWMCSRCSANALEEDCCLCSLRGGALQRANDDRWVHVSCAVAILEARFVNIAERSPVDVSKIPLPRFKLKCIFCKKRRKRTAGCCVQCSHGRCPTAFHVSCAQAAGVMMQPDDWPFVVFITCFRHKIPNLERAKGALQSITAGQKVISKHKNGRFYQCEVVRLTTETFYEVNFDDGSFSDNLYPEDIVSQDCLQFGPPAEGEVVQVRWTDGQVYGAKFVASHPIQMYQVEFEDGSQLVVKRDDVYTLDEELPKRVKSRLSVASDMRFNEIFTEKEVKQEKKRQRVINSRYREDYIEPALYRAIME

Hif1α = format: cell-based
endogenous KDMs = experiment: H3K9me3 immunofluorescent staining in vector-transfected HEK293T cells (FIG. 10B); format: cell-based; conditions: DMOG 1 mM 24 hrs
[1] = test system: C57BL/6J and Balb/c mice after TBI; experiment: Murine total body irradiation (TBI) model, 30 day survival; format: in vivo, mouse; conditions: 8 Gy TBI, DMOG 100 mg/kg ip 4 hrs before, 12 hrs and 36 hrs after TBI, 30 days
Description: Mice (10 per group) were irradiated (8 Gy TBI) and survival monitored over 30 days. DMOG (100 mg/kg) or saline was administered ip 4 hrs before TBI, and 12 hrs and 36 hrs after TBI.
Mice: This study was carried out in strict accordance with the recommendations in the Guide for the Care and Use of Laboratory Animals of the National Institutes of Health. The protocol was reviewed and approved by the Dana-Farber Cancer Institute's Animal Care and Use Committee (Protocol number 06-029). All efforts were made to minimize suffering. Male Balb/c mice were purchased from Taconic (NY, USA) and C57BL/6J mice were purchased from The Jackson Laboratory (ME, USA). For total body irradiation (TBI), mice were irradiated at the dose rate of 110 cGy/min using a ^137Cs source (Gammacell® 40Exactor, Best Theratronics, Ottawa, Canada). DMOG (dissolved in saline) or saline was administered IP before and after TBI. The mice were given normal water that had undergone reverse osmosis and powdered food (Purina Pico Lab Chow) after TBI. The animals were closely inspected after TBI for ill-health and the moribund animals were sacrificed according to the guidelines in our approved ACUC protocol. The Kaplan-Meier survival curves were plotted for saline-treated and DMOG-treated cohorts. The statistical analysis of the Kaplan-Meier survival curves was performed with Graph Pad Prism Version 5 using Mantel Log-rank test.

H3K9me3 = H3K9me3 immunofluorescent staining in MEFs (FIG. 10A); format: cell-based, mouse; conditions: DMOG 1 mM 24 hr
Description: In FIG. 10A MEFs were incubated in either solvent (Control: DMSO) or DMOG (1 mM) for 24 hr. H3K9me3 levels were detected by immunofluorescent staining with antibody to H3K9me3 and co-stained with DAPI to locate nuclear DNA. In FIG. 10B HEK293T cells were transiently transfected with vector or KDM4A and allowed to recover for 30 hrs. Cells were either untreated or incubated with DMOG (1 mM) for 24 hrs. H3K9me3 levels were detected by immunofluorescent staining with antibody to H3K9me3. In FIG. 10C MCF-7 cells were incubated in increasing concentrations of DMOG or CoCl2 (200 μM) for 24 hrs. […] In FIG. 10D MCF-7 cells were incubated in DMOG (1 mM) or CoCl2 (200 μM) for the indicated time. […] In FIG. 10E MCF-7 cells expressing either a non-specific shRNA (shRNA^Con) or shRNA targeting Hif1α (shRNA^Hif1α) were incubated with DMOG or CoCl2 (200 μM) for 24 hrs.
Immunofluorescence: Cells (on cover slides) were fixed in phosphate-buffered saline (PBS) containing 2% paraformaldehyde. Cells were permeabilized in 0.2% Triton X-100 in PBS for 5mins, and then blocked in fetal bovine serum for 20 min, Primary antibodies were prepared in 10% fetal bovine serum supplemented with 0.2% saponin. After a 1 h incubation with primary antibody, cells were washed three times with 0.2% Tween-20 and incubated for 1 h in secondary antibody (conjugated to either Texas Red or FITC; Santa Cruz Biotechnology, CA). […]

`COC(=O)CNC(=O)C(=O)OC` [DMOG, dimethyloxalylglycine] was tested, and the “H3K9me3 levels in cells expressing KDM4A” value (KDM4A) was “restored H3K9me3 levels to near normal”, the “accumulation of Hif1α” value (Hif1α) was “significant accumulation of Hif1α” and the “accumulation of Hif1α protein in combination with IR, versus agent alone” value (Hif1α) was “much larger accumulation of Hif1α protein”. The “H3K9me3 methylation in cells expressing vector” value (endogenous KDMs) was “increased H3K9me3 methylation”, the “survival after TBI” value ([1]; Balb/c mice, FIG. 6B) was “significantly improved the survival” and the “survival after TBI” value ([1]; C57BL/6J mice, FIG. 6A) was “significantly improved the survival”. For the same molecule, the H3K9me3 in cells (H3K9me3) was “rapidly increased H3K9me3”.
